Experimental data from US20220241412A1, “COMBINATION THERAPIES USING CDK INHIBITORS” (Pfizer Inc., priority 2019, published 2022).

Assays:
Assay type in all cases: in vivo
4T1 tumor cells = experiment: 4T1 syngeneic mouse tumor model, PF-06873600 with checkpoint antibodies (Example 7)
Procedure: 4T1 cells were obtained from American Type Culture Collection (ATCC) and cultured in Roswell Park Memorial Institute (RPMI1640) supplemented with 10% fetal bovine serum (FBS). All cells were maintained in a humidified incubator at 37° C. with 5% carbon dioxide (CO2). Female C57/BL6 mice were obtained from Jackson Laboratories at 8 weeks of age. To generate the syngeneic model, 30,000 4T1 tumor cells were subcutaneously implanted into the right flank of […]. Tumor bearing mice were randomized into four treatment groups based on average tumor sizes of approximately 70 mm^3 per group. Study groups included vehicle, 30 mg/kg PF-06873600 (CDK 2/4/6 inhibitor) twice daily by oral gavage, combination of 10 mg/kg anti-PD-1 antibody (PF-06937004) with 5 mg/kg anti-OX40 antibody (PF-07201252) and with 3 mg/kg anti-4-1BB antibody (PF-07218859) all administered by IP injection, and the combination of PF-06873600, anti-PD-1 antibody, anti-OX40 antibody and anti-41-BB antibody dosed as described in the cohorts above. […]
(§1) Tumor volumes were measured three times a week. Tumor volume was calculated based on two-dimensional caliper measurement with cubic millimeter volume calculated using the formula (length×width2)×0.5. […] Statistical significance determined using the Holm-Sidak method, with alpha=0.05.

MC38 tumor cells [1] = experiment: MC38 syngeneic mouse tumor model, PF-06873600 with checkpoint antibodies (Example 2); details: for tumor growth inhibition (in words): MC38 model, day 27 post-treatment initiation; for CR % on day 27: complete response; for CR % on day 27 / TGI % on day 27: day 27, s.c. MC38 tumors in female C57/BL6 mice, doses as in Table 10; for TGI % on day 27: tumor growth inhibition
Procedure: MC38 cells were obtained from American Type Culture Collection (ATCC) and cultured in Roswell Park Memorial Institute (RPMI1640) supplemented with 10% fetal bovine serum (FBS). All cells were maintained in a humidified incubator at 37° C. with 5% carbon dioxide (CO2). Female C57/BL6 mice were obtained from Jackson Laboratories at 8 weeks of age. To generate the syngeneic model, 0.5 million MC38 tumor cells were subcutaneously implanted into the right flank of female C57/BL6 mice. Tumor bearing mice were randomized into nine treatment groups based on average tumor sizes of approximately 70 mm^3 per group, on Day 9 post tumor cell implantation. Study groups included vehicle, 30 mg/kg PF-06873600 (CDK 2/4/6 inhibitor) twice daily by oral gavage, avelumab (anti-PD-L1 antibody, PF-06834635) administered by intraperitoneal (IP) injection, 10 mg/kg, combination of avelumab administered at 10 mg/kg with anti-OX40 antibody (PF-07201252) administered at 5 mg/kg by IP injection, combination of anti-PD-L1 antibody administered at 10 mg/kg with anti-4-1BB antibody (PF-07218859) administered at 3 mg/kg by IP injection, combination of anti-PD-L1 antibody as described above with PF-06873600 administered at 30mg/kg twice daily by oral gavage, combination of anti-PD-L1 antibody and anti-OX40 antibody as described above with PF-06873600 administered at 30 mg/kg twice daily by oral gavage, combination of anti-PD-L1 antibody with anti-4-1BB antibody as described above with PF-06873600 administered at 30mg/kg twice daily by oral gavage and combination of anti-PD-L1 antibody, anti-OX40 antibody and anti-41-BB antibody as described above with PF-06873600 administered at 30 mg/kg twice daily by oral gavage. All antibodies were administered as three doses; one every three days after the study initiation. All antibody formulations are phosphate buffered saline based while PF-06873600 was administered in a 0.5% methocel/Tween suspension.
Tumor volumes were measured three times a week. Tumor volume was calculated based on two-dimensional caliper measurement with cubic millimeter volume calculated using the formula (length×width2)×0.5. Mice were sacrificed when the tumor volumes reached 2000 mm^3, which was the survival endpoint for this study. Survival curves were plotted using GraphPad Prism 7 software. Statistical significance determined using the Holm-Sidak method, with alpha=0.05.

MC38 tumor cells [2] = experiment: MC38 syngeneic mouse tumor model, palbociclib with checkpoint antibodies (Example 1)
Procedure: MC38 cells were obtained from American Type Culture Collection (ATCC) and cultured in Roswell Park Memorial Institute (RPMI1640) supplemented with 10% fetal bovine serum (FBS). All cells were maintained in a humidified incubator at 37° C. with 5% carbon dioxide (CO2). Female C57/BL6 mice were obtained from Jackson Laboratories at 8 weeks of age. To generate the syngeneic model, 0.5 million MC38 tumor cells were subcutaneously implanted into the right flank of female C57/BL6 mice. Tumor bearing mice were randomized into four treatment groups based on average tumor sizes of approximately 70 mm^3 per group, on Day 9 post tumor cell implantation. […]
as §1

Row | Compound | tumor growth inhibition (in words) (4T1 tumor cells; 4T1 model, day 18 post-treatment initiation) | TGI % on day 27 (4T1 tumor cells; tumor growth inhibition, s.c. 4T1 tumors in female C57/BL6 mice, doses as in Table 16) | tumor growth inhibition (in words) (MC38 tumor cells [1]) | CR % on day 27 (MC38 tumor cells [1]) | TGI % on day 27 (MC38 tumor cells [1]) | tumor growth inhibition (in words) (MC38 tumor cells [2]; MC38 model, day 27 post-treatment initiation) | TGI % on day 27 (MC38 tumor cells [2]; tumor growth inhibition, day 27, s.c. MC38 tumors in female C57/BL6 mice, doses as in Table 8)
1 | C[C@@]1(O)CCC[C@H]1n1c(=O)c(C(F)F)cc2cnc(NC3CCN(S(C)(=O)=O)CC3)nc21 [PF-06873600, 6-(difluoromethyl)-8-((1R,2R)-2-hydroxy-2-methylcyclopentyl)-2-(1-(methylsulfonyl)piperidin-4-ylamino)pyrido[2,3-d]pyrimidin-7(8H)-one] | significantly inhibited tumor growth | 66% | did not significantly inhibit tumor growth | 0% | −7% |  | 
2 | CC(=O)c1c(C)c2cnc(Nc3ccc(N4CCNCC4)cn3)nc2n(C2CCCC2)c1=O [palbociclib, 6-acetyl-8-cyclopentyl-5-methyl-2-(5-piperazin-1-yl-pyridin-2-ylamino)-8H-pyrido[2,3-d]pyrimidin-7-one] |  |  |  |  |  | did not significantly inhibit tumor growth | 29%
3 | PF-06834635: avelumab (anti-PD-L1 antibody, PF-06834635) |  |  | did not significantly inhibit tumor growth | 0% | 9% |  | 
